In the assay the test system is 817829-284-R-J1-PDC spheroids with HUVEC/MSC, viability. Put plainly: Anticancer human tumor 817829-284-R-J1-PDC patient-derived colon adenocarcinoma cell line growth inhibition [TAK]. Conditions: for viability, T/C: stronger effect = lower value. An excerpt:
Combinatorial screen of targeted agents with TAK-243 and ipatasertib in multi-cell type tumor spheroids
A high-throughput screen of multi-cell type tumor spheroids was designed to identify active combinations of targeted small molecules and TAK-243 or ipatasertib. Complex spheroids include a stromal component modeled by human endothelial cells (HUVEC) and fibroblasts modeled by human mesenchymal stem cells (MSCs). The concentration ranges selected for each drug and investigational agent were based upon clinically achievable concentrations if the clinical Cmax of the agent was known.
Compounds. The drugs and investigational agents: TAK-243 (785004), ipatasertib (767898), everolimus (733504), selumetinib (741078), bortezomib (756655), trametinib (758246), ixazomib (758254), vemurafenib (761431), dabrafenib (764134), sapanisertib (764658), alpelisib (765974), and copanlisib (816437), were obtained from the National Cancer Institute (NCI) Developmental Therapeutics Program Chemical Repository. The FDA-approved anticancer drug set is available from the NCI Developmental Therapeutics Program. […] The stock solutions were prepared in dimethyl sulfoxide (DMSO, Sigma-Aldrich, St. Louis, MO, cat. D2650) at 800-fold the tested concentration and stored at -70 degrees C prior to their use. All drugs and investigational agents were tested over a range starting from a high concentration at or near the clinical Cmax and decreasing in half-log increments. If the clinical Cmax for an agent had not been determined, the highest concentration tested was 10 microM.
NCI60 Cell Culture. NCI60 cell lines were obtained from the NCI Developmental Therapeutics Program Tumor Repository. For each lot of cells, the Repository performed Applied Biosystems AmpFLSTR Identifiler testing with PCR amplification to confirm consistency with the published Identifier STR profile for each cell line. Cells were kept in continuous culture for no more than 20 passages. The optimal seeding densities for each of the cell lines at each time point assessed were determined prior to performing the concentration response studies. Briefly, the NCI60 human tumor lines were grown as monolayers in RPMI 1640 medium supplemented with 10% FBS and 2 mmol/L L-glutamine.
An additional 2 lines were from the NCI60 cell line panel including melanomas, MALME-3M and SK-MEL-2. Pooled donor human umbilical vein endothelial cells (HUVEC, Lonza, cat. CC-2519) and human mesenchymal stem cells (hMSC, Lonza, cat. PT-2501) were purchased from Lonza (Walkersville, MD).
PDMR cell lines were grown in complete medium (DC medium): Dulbecco's modified Eagle's medium (DMEM)/F12 supplemented with 5% fetal bovine serum (FBS), 2 mM L-glutamine, 100 U/mL penicillin and 100 µg/ml streptomycin, 0.4 µg/ml hydrocortisone, 10 ng/ml epidermal growth factor (EGF) recombinant human protein, 24 µg/mL adenine, and 0.1 mg/mL primocin. During culture from frozen stock vials, PDMR cells were cultured in the same medium containing 10 µM Y-27632 (see Table 3). The PDCs were cultured in complete DMEM/F12 media without 10 microM Y-27632 dihydrochloride for at least two passages prior to the screen. The pooled donor HUVEC and hMSC were cultured in endothelial cell growth medium 2 (PromoCell, Heidelberg, Germany, cat. C-22011) and mesenchymal stem cell growth medium 2 (PromoCell, cat. C-28009), respectively. For all experiments, HUVEC and hMSC were used at passages </=5.
For the pre-screen, cell seeding densities were determined from a titration spanning the range from 5,000 to 313 cells per well. The mct-spheroids including 60% malignant cells, 25% HUVEC and 15% MSC dispensed as a mixture into U-bottom Ultra-Low Attachment 384-well plates (Corning, NY)
High-throughput Drug Combination Screening.
Prior to their inoculation into 384-well plates, malignant cells, HUVEC, and hMSC were removed from T flasks using TrypLE express (Thermo Fisher Scientific, cat. 12605036) and harvested by centrifugation for 5 min at 233 x g. […]

A word on the viability, T/C: it is the result in the treated group divided by that in the control group, in per cent. Usually pIC50 stands for the negative decadic logarithm of the IC50, by convention in mol/L.

pIC50: −log10 of the molar value. Several values for one entry are separate records, joined by “and”; a condition that tells them apart may be missing. Equal entries are not always repeated. Where only a bound is given, the exact number is not on record here.

For `COC1CC2CCC(C)C(O)(O2)C(=O)C(=O)N2CCCCC2C(=O)OC(C(C)CC2CCC(OCCO)C(OC)C2)CC(=O)C(C)C=C(C)C(O)C(OC)C(=O)C(C)CC(C)C=CC=CC=C1C` (stereo unspecified), the viability, T/C runs as follows: (compound 0.000316 µM) 104% and 110%; (compound 0.001 µM) 99.8% and 102%; (compound 0.00316 µM) 94% and 99.6%; (compound 0.01 µM) 81% and 86.2%; (compound 0.0316 µM) 79.2% and 82.3%; (compound 0.1 µM) 63.9% and 75%. Moreover, where the note is “curve of compound”, the pIC50 is below 7.00.

With `CC(C)CC(NC(=O)CNC(=O)c1cc(Cl)ccc1Cl)B1OC(=O)CC(CC(=O)O)(C(=O)O)O1` (stereo unspecified), the viability, T/C runs as follows: (compound 0.000316 µM) 106% and 97.9%; (compound 0.001 µM) 107% and 100%; (compound 0.00316 µM) 111% and 99.2%; (compound 0.01 µM) 103% and 105%; (compound 0.0316 µM) 3.63% and 22.3%; (compound 0.1 µM) 0.47% and 0.3%. Besides, the pIC50 (curve of compound) was 7.73 and 7.68.

`CC(C)n1nc(-c2ccc3oc(N)nc3c2)c2c(N)ncnc21`: the viability, T/C runs as follows: (compound 0.000316 µM) 101% and 104%; (compound 0.001 µM) 102% and 99%; (compound 0.00316 µM) 101% and 102%; (compound 0.01 µM) 93% and 92.9%; (compound 0.0316 µM) 56.8% and 61.2%; (compound 0.1 µM) 21.3% and 33.1%. The pIC50 (curve of compound) is 7.40 and 7.30.

For `CC(=O)Nc1cccc(-n2c(=O)n(C3CC3)c(=O)c3c(Nc4ccc(I)cc4F)n(C)c(=O)c(C)c32)c1` + CC(C)NCC(C(=O)N1CCN(c2ncnc3c2C(C)CC3O)CC1)c1ccc(Cl)cc1, the pIC50 (curve of first compound, second compound 0.3 µM) was 9.81; the pIC50 (curve of first compound, second compound 0.949 µM) is above 10.02; the pIC50 (curve of first compound, second compound 3 µM) is above 10.02; the pIC50 (curve of first compound, second compound 9.49 µM) was above 10.02; the pIC50 (curve of first compound, second compound 30 µM) was above 10.02. Besides, the viability, T/C by setting is: (second compound 0.3 µM, first compound 94.9 pM) 60%; (second compound 0.3 µM, first compound 0.0003 µM) 36.2%; (second compound 0.3 µM, first compound 0.000949 µM) 22.1%; (second compound 0.3 µM, first compound 0.003 µM) 24.3%; (second compound 0.3 µM, first compound 0.00949 µM) 11.9%; (second compound 0.3 µM, first compound 0.03 µM) 7.59%. For the same compound, the viability, T/C runs as follows: (second compound 0.949 µM, first compound 94.9 pM) 19.3%; (second compound 0.949 µM, first compound 0.0003 µM) 19.1%; (second compound 0.949 µM, first compound 0.000949 µM) 13.8%; (second compound 0.949 µM, first compound 0.003 µM) 12.8%; (second compound 0.949 µM, first compound 0.00949 µM) 11.4%; (second compound 0.949 µM, first compound 0.03 µM) 10.6%. Further, the viability, T/C runs as follows: (second compound 3 µM, first compound 94.9 pM) 9.84%; (second compound 3 µM, first compound 0.0003 µM) 8.37%; (second compound 3 µM, first compound 0.000949 µM) 8.93%; (second compound 3 µM, first compound 0.003 µM) 8.79%; (second compound 3 µM, first compound 0.00949 µM) 7.98%; (second compound 3 µM, first compound 0.03 µM) 7.61%. The viability, T/C was 6.42% (second compound 9.49 µM, first compound 94.9 pM); 5.85% (second compound 9.49 µM, first compound 0.0003 µM); 5.02% (second compound 9.49 µM, first compound 0.000949 µM); 5.15% (second compound 9.49 µM, first compound 0.003 µM); 5.13% (second compound 9.49 µM, first compound 0.00949 µM); 4.15% (second compound 9.49 µM, first compound 0.03 µM). In addition, the viability, T/C is 4.66% (second compound 30 µM, first compound 94.9 pM); 4.56% (second compound 30 µM, first compound 0.0003 µM); 3.15% (second compound 30 µM, first compound 0.000949 µM); 3.45% (second compound 30 µM, first compound 0.003 µM); 2.76% (second compound 30 µM, first compound 0.00949 µM); 2.65% (second compound 30 µM, first compound 0.03 µM).

The values are drawn from PubChem BioAssay AID2060347 (Molecular Pharmacology Branch, DTP, NCI, 2025).
